Measurements published in patent US6451803B1, “N-acyl and n-aroyl aralkyl amides useful in treating seritonergic disorders” (Pfizer INC, priority 1998, dated 2002).

melting point: 110 to 120 °C
SMILES: CN1CCN(c2ccccc2CCNC(=O)c2ccc(Cl)c(Cl)c2)CC1.Cl.O (hydrate or solvate)
